# Patent US6368552B1, “Water treating agent and water treating method” (Kurita Water Industries Ltd., priority 1999, dated 2002)
# Legend:
# [1] = Autoclave test of transference of the chemical from liquid water phase to steam phase at 200° C. (gas chromatography); assay type: physicochemical; details: autoclave 200° C.; for Conc. of chemical in water / Conc. of chemical in steam: 200 mg/liter aqueous solution, pH 11.5 with sodium hydroxide; for Conc. of chemical in water: liquid phase sample; for Conc. of chemical in steam: steam phase sample
# Experimental: Each 50 ml of samples were taken from the steam phase and from the liquid phase directly after the temperature had reached at 200° C., which were analyzed for the concentration of the chemical on a gas chromatography. The ratio of the concentration of chemical in the steam phase versus the concentration of chemical in the liquid phase was calculated.
# [2] = Removal of dissolved oxygen by potassium erysorbate at 60° C., 10 minutes; details: 100 mg potassium erysorbate per liter, pH of test soln. as in row (6.5-10.5)
# Experimental: In a constant temperature bath held at 60° C., one liter of deionized water of a pH of 6.5 was stirred for one hour so as to saturate it with atmospheric oxygen and the oxygen concentration was measured by a dissolved oxygen meter (MOCA 3600 of the firm Orbisphere Laboratories). 100 mg of potassium erysorbate were added to the water and the mixture was agitated sufficiently, before the solution was poured into a 200 ml incubation bottle to fill it completely therewith, whereupon a closure stopper was fitted into the bottle so as to exclude any rest of gas space therein and the bottle was returned to the constant temperature bath of 60° C. to subject the solution to reaction for 10 minutes. After 10 minutes, the bottle was taken out of the bath and the dissolved oxygen concentration therein was detected by the dissolved oxygen meter. The rate of removal of dissolved oxygen is calculated from the proportion of the dissolved oxygen concentration after the addition of potassium erysorbate versus the dissolved oxygen concentration before the addition of potassium erysorbate (Comparative Example 15).
# Test solutions were prepared from each one liter of deionized water by adjusting the pH thereof at 7.5, 9.0 and 10.5, respectively, by adding sodium hydroxide thereto as alkali reagent. […]
SMILES,Conc. of chemical in water [1] [µg/mL],Conc. of chemical in steam [1] [µg/mL],Transference from the liquid water phase to the steam phase [1],Conc. ratio Cs/Cw (concentration in the steam phase/concentration in liquid water phase) ([1]; pH 11.5),"Converted into gluconic acid (with some decomposition into other compounds) ([1]; liquid water phase, pH 11.5)",Rate of O2 remov. [2] [%]
"O=C1O[C@H]([C@H](O)CO)C([O-])=C1O.[K+] [compound 15, potassium erysorbate]",,,,,,30.1
"CCCCCC1CCC(=O)O1 (stereo not drawn) [Example 1, γ-nonalactone]",188,207,,1.10,,

# Continued, in another order:
Conc. of chemical in water [1] [µg/mL],Conc. of chemical in steam [1] [µg/mL],Transference from the liquid water phase to the steam phase [1],Conc. ratio Cs/Cw (concentration in the steam phase/concentration in liquid water phase) ([1]; pH 11.5),SMILES,"Converted into gluconic acid (with some decomposition into other compounds) ([1]; liquid water phase, pH 11.5)",Rate of O2 remov. [2] [%]
<1,<1,almost no transference,<0.01,"O=C1O[C@H](CO)[C@@H](O)[C@H](O)[C@H]1O [compound 1, glucono-δ-lactone, reference compound]",*2) Converted into 173 mg/l of gluconic acid with some decomposition into other compounds.,
186,453,,2.44,"CC=Cc1ccc(O)c(OC)c1 [Example 5, Isoeugenol]",,
187,120,,0.64,"CCCCCCC1CCC(=O)O1 (stereo not drawn) [Example 2, γ-decalactone]",,
184,418,,2.27,"C=CCc1ccc(O)c(OC)c1 [Example 4, Eugenol]",,
